Literature values as cited in patent publication US20190015503A1, “METHODS FOR THE PROGNOSIS AND TREATMENT OF ENDOMETRIAL CARCINOMA” (INSERM (INSTITUT NATIONAL DE LA SANTÉ DE LA RECHERCHE …, priority 2015, published 2019).

Tested on: prostate cancer cells
Settings: dose- and time-dependent

COc1cccc(OC)c1-c1cc(C(=O)NC2(C(=O)O)C3CC4CC(C3)CC2C4)nn1-c1ccnc2cc(Cl)ccc12 (stereo not shown) [SR48692]
radio-sensitization (increasing apoptotic cell death and decreasing clonogenic survival): radio-sensitized prostate cancer cells in a dose- and time-dependent manner
